Results as given in ChEMBL document CHEMBL1201862, “PubChem BioAssay data set” (2004).
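Five concentrations, 48 hours, 96-well plates. GI50: concentration for 50% inhibition of growth.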 Calls of active or inactive are those of the source. Cut-off read from the data, not from the text of the source: active = GI50 up to about 1.1 µM and inactive = higher.

Columns and labels:
Experiment in all cases: NCI tumour cell line growth inhibition, 48 h
MDA-MB-435 = test system: MDA-MB-435
HCT-15 = test system: HCT-15
HT-29 = test system: HT-29
SN12C = test system: SN12C
Hs-578T = test system: Hs-578T
SK-MEL-28 = test system: SK-MEL-28
SK-MEL-2 = test system: SK-MEL-2
HL-60 = test system: HL-60
SK-MEL-5 = test system: SK-MEL-5
SR = test system: SR
CCRF-CEM = test system: CCRF-CEM
UO-31 = test system: UO-31
SW-620 = test system: SW-620
HOP-92 = test system: HOP-92
MDA-N = test system: MDA-N
ACHN = test system: ACHN
OVCAR-8 = test system: OVCAR-8
MOLT-4 = test system: MOLT-4
CAKI-1 = test system: CAKI-1
NCI-H226 = test system: NCI-H226
SF-539 = test system: SF-539
M14 = test system: M14
IGROV-1 = test system: IGROV-1
NCI-H522 = test system: NCI-H522
SNB-75 = test system: SNB-75
RXF 393 = test system: RXF 393
SNB-19 = test system: SNB-19
NCI-H23 = test system: NCI-H23
OVCAR-3 = test system: OVCAR-3
BT-549 = test system: BT-549
COLO 205 = test system: COLO 205
SF-295 = test system: SF-295
HCT-116 = test system: HCT-116
A498 = test system: A498
MCF7 = test system: MCF7
K562 = test system: K562
UACC-62 = test system: UACC-62
TK-10 = test system: TK-10
A549 = test system: A549
NCI/ADR-RES = test system: NCI/ADR-RES
OVCAR-5 = test system: OVCAR-5
PC-3 = test system: PC-3
NCI-H460 = test system: NCI-H460
HCC 2998 = test system: HCC 2998
T47D = test system: T47D
MDA-MB-231 = test system: MDA-MB-231
Malme-3M = test system: Malme-3M
LOX IMVI = test system: LOX IMVI
U-251 = test system: U-251
KM12 = test system: KM12
UACC-257 = test system: UACC-257
OVCAR-4 = test system: OVCAR-4
DU-145 = test system: DU-145
RPMI-8226 = test system: RPMI-8226
SF-268 = test system: SF-268
786-0 = test system: 786-0
SK-OV-3 = test system: SK-OV-3
EKVX = test system: EKVX
HOP-62 = test system: HOP-62

## Cc1cc2c(c(/C=N/c3ccc(N(C)C)cc3)c1)OC1(C=C2)Oc2ccccc2C(=O)N1C (stereo not drawn)
MDA-MB-435
  GI50: 13 µM (inactive)
HCT-15
  GI50: 8.34 µM
HT-29
  GI50: 23.1 µM (inactive)
SN12C
  GI50: 15.7 µM (inactive)
Hs-578T
  GI50: 21.5 µM (inactive)
SK-MEL-28
  GI50: 16 µM (inactive)
SK-MEL-2
  GI50: > 39.2 µM (inactive)
HL-60
  GI50: 3.54 µM (inactive)
SK-MEL-5
  GI50: 13.9 µM (inactive)
SR
  GI50: 54.2 µM (inactive)
CCRF-CEM
  GI50: 2.71 µM (inactive)
UO-31
  GI50: 9.2 µM (inactive)
SW-620
  GI50: 17.3 µM (inactive)
HOP-92
  GI50: 16.4 µM (inactive)
MDA-N
  GI50: 12.5 µM (inactive)
ACHN
  GI50: 12.2 µM (inactive)
OVCAR-8
  GI50: 14.2 µM (inactive)
MOLT-4
  GI50: 1.75 µM (inactive)
CAKI-1
  GI50: 14.6 µM (inactive)
NCI-H226
  GI50: 23.9 µM (inactive)
SF-539
  GI50: 10 µM (inactive)
M14
  GI50: 14.5 µM (inactive)
IGROV-1
  GI50: 13.2 µM (inactive)
NCI-H522
  GI50: 14.4 µM (inactive)
SNB-75
  GI50: 18 µM (inactive)
RXF 393
  GI50: 11.7 µM (inactive)
SNB-19
  GI50: 7.96 µM (inactive)
NCI-H23
  GI50: 12.5 µM (inactive)
OVCAR-3
  GI50: > 35.2 µM (inactive)
BT-549
  GI50: 8.63 µM (inactive)
COLO 205
  GI50: 17.5 µM (inactive)
SF-295
  GI50: 21.2 µM (inactive)
HCT-116
  GI50: 8.22 µM (inactive)
A498
  GI50: 19.7 µM (inactive)
MCF7
  GI50: 16.2 µM (inactive)
K562
  GI50: 4.97 µM (inactive)
UACC-62
  GI50: 13.1 µM (inactive)
TK-10
  GI50: 16.3 µM (inactive)
A549
  GI50: 20.1 µM (inactive)
NCI/ADR-RES
  GI50: 16.5 µM (inactive)
OVCAR-5
  GI50: 17.7 µM (inactive)
PC-3
  GI50: > 35.5 µM (inactive)
NCI-H460
  GI50: 18.7 µM (inactive)
HCC 2998
  GI50: 16.6 µM (inactive)
T47D
  GI50: 12.5 µM (inactive)
MDA-MB-231
  GI50: 3.53 µM (inactive)
Malme-3M
  GI50: 17.7 µM (inactive)
LOX IMVI
  GI50: 13 µM (inactive)
U-251
  GI50: 15.1 µM (inactive)
KM12
  GI50: 15.5 µM (inactive)
UACC-257
  GI50: 14.7 µM (inactive)
OVCAR-4
  GI50: 12.6 µM (inactive)
DU-145
  GI50: 14 µM (inactive)
RPMI-8226
  GI50: 5.96 µM (inactive)
SF-268
  GI50: 17.1 µM (inactive)
786-0
  GI50: 14.2 µM (inactive)
SK-OV-3
  GI50: 24.4 µM (inactive)
EKVX
  GI50: 12.5 µM (inactive)
HOP-62
  GI50: > 43 µM (inactive)

## Cn1cnc([N+](=O)[O-])c1[Se]c1nc(N)nc2c1ncn2C1OC(CO)C(O)C1O (stereo not drawn)
MDA-MB-435
  GI50: > 100 µM (inactive)
HCT-15
  GI50: > 100 µM
HT-29
  GI50: > 100 µM (inactive)
SN12C
  GI50: > 100 µM (inactive)
Hs-578T
  GI50: > 100 µM (inactive)
SK-MEL-28
  GI50: > 100 µM (inactive)
SK-MEL-2
  GI50: > 100 µM (inactive)
HL-60
  GI50: > 100 µM (inactive)
SK-MEL-5
  GI50: > 100 µM (inactive)
SR
  GI50: > 100 µM (inactive)
CCRF-CEM
  GI50: > 100 µM (inactive)
UO-31
  GI50: > 100 µM (inactive)
SW-620
  GI50: > 100 µM (inactive)
HOP-92
  GI50: > 100 µM (inactive)
MDA-N
  GI50: > 100 µM (inactive)
ACHN
  GI50: > 100 µM (inactive)
OVCAR-8
  GI50: > 100 µM (inactive)
MOLT-4
  GI50: > 100 µM (inactive)
CAKI-1
  GI50: > 100 µM (inactive)
NCI-H226
  GI50: > 100 µM (inactive)
SF-539
  GI50: > 100 µM (inactive)
M14
  GI50: > 100 µM (inactive)
IGROV-1
  GI50: > 100 µM (inactive)
NCI-H522
  GI50: > 100 µM (inactive)
SNB-75
  GI50: > 100 µM (inactive)
RXF 393
  GI50: > 100 µM (inactive)
SNB-19
  GI50: > 100 µM (inactive)
NCI-H23
  GI50: > 100 µM (inactive)
OVCAR-3
  GI50: > 100 µM (inactive)
BT-549
  GI50: > 100 µM (inactive)
COLO 205
  GI50: > 100 µM (inactive)
SF-295
  GI50: > 100 µM (inactive)
HCT-116
  GI50: > 100 µM (inactive)
A498
  GI50: > 100 µM (inactive)
MCF7
  GI50: > 100 µM (inactive)
K562
  GI50: > 100 µM (inactive)
UACC-62
  GI50: > 100 µM (inactive)
TK-10
  GI50: > 100 µM (inactive)
A549
  GI50: > 100 µM (inactive)
NCI/ADR-RES
  GI50: > 100 µM (inactive)
OVCAR-5
  GI50: > 100 µM (inactive)
PC-3
  GI50: > 100 µM (inactive)
NCI-H460
  GI50: > 100 µM (inactive)
HCC 2998
  GI50: > 100 µM (inactive)
T47D
  GI50: > 100 µM (inactive)
MDA-MB-231
  GI50: > 100 µM (inactive)
Malme-3M
  GI50: > 100 µM (inactive)
LOX IMVI
  GI50: > 100 µM (inactive)
U-251
  GI50: > 100 µM (inactive)
KM12
  GI50: > 100 µM (inactive)
UACC-257
  GI50: > 100 µM (inactive)
OVCAR-4
  GI50: > 100 µM (inactive)
DU-145
  GI50: > 100 µM (inactive)
RPMI-8226
  GI50: > 100 µM (inactive)
SF-268
  GI50: > 100 µM (inactive)
786-0
  GI50: > 100 µM (inactive)
SK-OV-3
  GI50: > 100 µM (inactive)
EKVX
  GI50: > 100 µM (inactive)
HOP-62
  GI50: > 100 µM (inactive)
